Laboratory results published in US5792765A, “Substituted oxazolidinones” (Bayer Aktiengesellschaft, priority 1996, dated 1998).
≈ marks a conversion by molar mass, not a printed value. Like-named read-outs stand apart in the source and are kept apart here.

Key:
Format in all cases: cell-based
Staph. 48N = assay: MIC by serial dilution on Iso-Sensitest Agar; conditions: 37° C., about 20 hours
Experimental: (§1) The minimum inhibitory concentrations (MIC) were determined by serial dilution methods on Iso-Sensitest Agar (Oxoid). For each test substance, a number of agar plates were prepared which, with an in each case doubled dilution, contained decreasing concentrations of the active compound. The agar plates were inoculated with the multipoint inoculator (Denley). For inoculation, overnight cultures of the caustive organisms were used which had previously been diluted such that each inoculation point contained about 10^4 colony-forming particles. The inoculated agar plates were incubated at 37° C., and the microorganism growth was read off after about 20 hours. The MIC value (μg/ml) indicates the lowest active compound concentration at which no growth could be detected using the naked eye.

Staph. 133 = assay: MIC by serial dilution on Iso-Sensitest Agar; conditions: 37° C., about 20 hours
Experimental: as §1

Staph. 25701 = assay: MIC by serial dilution on Iso-Sensitest Agar; conditions: 37° C., about 20 hours
Experimental: as §1

Klebs. 57 USA = assay: MIC by serial dilution on Iso-Sensitest Agar
Experimental: as §1

Staph. 9TV = assay: MIC by serial dilution on Iso-Sensitest Agar; conditions: 37° C., about 20 hours
Experimental: as §1

E. coli Neumann = assay: MIC by serial dilution on Iso-Sensitest Agar; conditions: Escherichia coli
Experimental: as §1

Psdm. Bonn = assay: MIC by serial dilution on Iso-Sensitest Agar
Experimental: as §1

[1] = test system: Mycobacterium smegmatis DSM 43061; assay: MIC by broth microdilution, rapidly growing mycobacteria; conditions: Mycolicibacterium smegmatis, DSM43061; strain DSM 43061; inoculum 2.20E + 04 /ml; 37° C., 2-4 days
Experimental: (§2) For rapidly growing mycobacteria the MIC determination was carried out following the broth microdilution method described by Swenson [cf. J. M. Swenson, C. Thomberry, U. A. Silcox, Rapidly growing mycobacteria. Testing of susceptibility to 34 antimicrobial agents by broth microdilution. Antimicrobial Agents and Chemotherapy Vol. 22, 186-192 (1982)]. A deviation from this was the brain-heart extract medium treated with 0.1% by volume of Tween 80.
(§3) The mycobacterial strains used were obtained from the DSM (German Collection of Microorganisms, Brunswick). They were incubated at 37° C. in a humid chamber.
(§4) The MIC values were read off after 2-4 days when the preparation-free controls had become turbid due to growth.

[2] = test system: Mycoplasma pneumoniae strain PI 1428; assay: MIC determination with Mycoplasma pneumoniae, serial microdilution; conditions: PI1428, PPLO medium, anaerobic, 37° C., Alamar Blue
Experimental: MIC determination with Mycoplasma pneumoniae
Mycoplasma pneumoniae strain PI 1428 was cultured under anaerobic conditions in PPLO medium, to which 1% glucose, 2.5% yeast extract, 20% horse serum (donor horse serum) and 0.002% Phenol Red were added. MIC determinations were carried out following the serial microdilution method in liquid medium described by ter Laak and coworkers (E. A. ter Laak, A. Pijpers, J. H. Noordergraaf, E. Schoevers, J. H. M. Verheijden: Comparison of Methods for in vitro Testing of Susceptibility of Porcine Mycoplasma Species to Antimicrobial Agents; Antimicrobial Agents and Chemotherapy, Vol. 35, 228-233 (1991)). At the time of the start of the colour change of the medium of the preparation-free control from red to yellow, 10% by volume of Alamar Blue was added. The incubation at 37° C. was continued for about 10 hours and the MIC defined as the value at which the medium having the smallest preparation concentration remained unchanged blue.

[3] = test system: Mycobacterium smegmatis DSM 43078; assay: MIC by broth microdilution, rapidly growing mycobacteria; conditions: Mycolicibacterium smegmatis, DSM43078; strain DSM 43078; inoculum 4.20E + 04 /ml; 37° C., 2-4 days
Experimental: as §2, §3, §4

[4] = Klebs. 57 USA, 37° C., about 20 hours, read-out: MIC
[5] = E. coli Neumann, 37° C., about 20 hours, read-out: MIC
[6] = Psdm. Bonn, 37° C., about 20 hours, read-out: MIC

SMILES	MIC (Staph. 48N) [µg/mL]	MIC (Staph. 133) [µg/mL]	MIC (Staph. 25701) [µg/mL]	MIC (Staph. 9TV) [µg/mL]	MIC [1] [µg/mL]	MIC [2] [µg/mL]	MIC (Klebs. 57 USA; [4]) [µg/mL]	MIC (E. coli Neumann; [5]) [µg/mL]	MIC (Psdm. Bonn; [6]) [µg/mL]	MIC [3] [µg/mL]	MIC (Klebs. 57 USA; 20 h) [µg/mL]	MIC (E. coli Neumann; 20 h) [µg/mL]	MIC (Psdm. Bonn; 20 h) [µg/mL]
CCC(=S)NC[C@H]1CN(c2ccc3ccsc3c2)C(=O)O1 [Example 11]	0.5 (≈ 1.56 µM)	0.5 (≈ 1.56 µM)	0.25 (≈ 0.78 µM)	0.25 (≈ 0.78 µM)	–	–	–	–	–	–	> 64	> 64	> 64
CNC(=S)NC[C@H]1CN(c2ccc(-c3ccncc3)s2)C(=O)O1 [Example 12]	1 (≈ 2.87 µM)	–	1 (≈ 2.87 µM)	0.5 (≈ 1.43 µM)	8	2 (≈ 5.74 µM)	> 64	> 64	> 64	–	–	–	–
CNC(=S)NC[C@H]1CN(c2ccc(-c3cccnc3)s2)C(=O)O1 [Example 14]	1 (≈ 2.87 µM)	1 (≈ 2.87 µM)	1 (≈ 2.87 µM)	0.5 (≈ 1.43 µM)	8	8 (≈ 23 µM)	> 64	> 64	> 64	4	–	–	–
CC(=S)NC[C@H]1CN(c2cc3ccc(Cl)cc3s2)C(=O)O1 [Example 43]	0.5 (≈ 1.47 µM)	0.5 (≈ 1.47 µM)	0.5 (≈ 1.47 µM)	0.5 (≈ 1.47 µM)	–	–	> 64	> 64	> 64	–	–	–	–
NNC(=O)c1ccncc1 [Isoniazide, reference compound]	–	–	–	–	4	–	–	–	–	2	–	–	–

Now from value to compound, other results behind:

MIC (Staph. 48N) [µg/mL]	MIC (Staph. 133) [µg/mL]	MIC (Staph. 25701) [µg/mL]	MIC (Staph. 9TV) [µg/mL]	MIC [1] [µg/mL]	MIC [2] [µg/mL]	MIC (Klebs. 57 USA; [4]) [µg/mL]	MIC (E. coli Neumann; [5]) [µg/mL]	MIC (Psdm. Bonn; [6]) [µg/mL]	MIC [3] [µg/mL]	SMILES	MIC (Klebs. 57 USA; 20 h) [µg/mL]	MIC (E. coli Neumann; 20 h) [µg/mL]	MIC (Psdm. Bonn; 20 h) [µg/mL]
–	0.25 (≈ 0.75 µM)	0.25 (≈ 0.75 µM)	≤ 0.125	2	2 (≈ 6 µM)	> 64	> 64	> 64	1	CC(=S)NC[C@H]1CN(c2ccc(-c3ccncc3)s2)C(=O)O1 [Example 13]	–	–	–
0.5 (≈ 1.5 µM)	0.25 (≈ 0.75 µM)	0.25 (≈ 0.75 µM)	≤ 0.125	1	–	> 64	> 64	> 64	0.5	CC(=S)NC[C@H]1CN(c2ccc(-c3cccnc3)s2)C(=O)O1 [Example 15]	–	–	–
0.25 (≈ 0.709 µM)	0.25 (≈ 0.709 µM)	0.25 (≈ 0.709 µM)	≤ 0.125	0.25	–	> 64	64 (≈ 182 µM)	> 64	0.25	CNC(=S)NC[C@H]1CN(c2ccc3c(c2)sc(=O)n3C)C(=O)O1 [Example 20]	–	–	–
0.5 (≈ 1.36 µM)	0.25 (≈ 0.678 µM)	0.5 (≈ 1.36 µM)	0.25 (≈ 0.678 µM)	–	4 (≈ 10.9 µM)	> 64	> 64	> 64	–	CNC(=S)NC[C@H]1CN(c2ccc3nc(SC)sc3c2)C(=O)O1 [Example 23]	–	–	–
0.25 (≈ 0.707 µM)	< 0.125	0.25 (≈ 0.707 µM)	≤ 0.125	–	–	> 64	> 64	> 64	–	CSc1nc2ccc(N3C[C@H](CNC(C)=S)OC3=O)cc2s1 [Example 26]	–	–	–
> 0.125	< 0.125	> 0.125	≤ 0.125	–	–	64 (≈ 190 µM)	64 (≈ 190 µM)	> 64	–	CC(=S)NC[C@H]1CN(c2ccc3c(c2)sc(=O)n3C)C(=O)O1 [Example 42]	–	–	–
